Results on 15 compounds are retold here after PubChem BioAssay (NCI).

Molecules are shown by their SMILES. “And” between values parts separate entries of the source, which are not always exact repeats. Equal entries are not always repeated.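 These data come from cells grown in 96-well plates and exposed to compound for 48 hours at five concentrations. GI50 = concentration required for 50% inhibition of growth. TGI marks complete inhibition of growth.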

Some test systems named below: HT29 colon; TK-10 renal; LOX IMVI melanoma; SK-MEL-5 melanoma; SK-OV-3 ovarian; SF-268 CNS; MALME-3M melanoma; KM12 colon; 786-0 renal; NCI-H460 lung.
Common to all, as to assay: NCI tumour cell line growth inhibition, 48 h

With `N#Cc1c(N)oc2cc3c(C#N)c(N)oc3cc12`, the TGI in the assay on HT29 colon, in the assay on TK-10 renal, in the assay on LOX IMVI melanoma, in the assay with SK-MEL-5 melanoma, in the assay on SK-OV-3 ovarian and in the assay with SF-268 CNS was more than 100 µM each time. Also, the TGI in the assay on MALME-3M melanoma, in the assay with KM12 colon, in the assay on 786-0 renal and in the assay on NCI-H460 lung was more than 100 µM in each case.
Regarding `Cc1ccc(C)c(N2CCN(c3ccncc3N)CC2)c1`, the GI50 in the assay with HT29 colon is 11.2 µM; in the assay on TK-10 renal, 16.7 µM; in the assay on LOX IMVI melanoma, 20.6 µM; in the assay with SK-MEL-5 melanoma, 11.7 µM; with SK-OV-3 ovarian, 21.9 µM; in the assay on SF-268 CNS, 24.9 µM. Further, the GI50 in the assay on MALME-3M melanoma is 17.6 µM; in the assay with KM12 colon, 15.1 µM; in the assay with 786-0 renal it was 20.5 µM; in the assay with NCI-H460 lung it was 13.7 µM. Besides, the TGI was 26.3 µM in the assay on HT29 colon; 49.8 µM in the assay on TK-10 renal; 61.1 µM in the assay with LOX IMVI melanoma; 24.4 µM in the assay with SK-MEL-5 melanoma; 73.5 µM in the assay with SK-OV-3 ovarian; more than 100 µM in the assay with SF-268 CNS. For the same compound, the TGI in the assay with MALME-3M melanoma is 40.7 µM; in the assay with KM12 colon, 47.1 µM; in the assay on 786-0 renal it was 58.1 µM; in the assay on NCI-H460 lung it was 31.9 µM.
`COc1cc2c(c3oc4c(O)cccc4c(=O)c13)CC(C(C)(O)CCl)O2` (stereo not given): the TGI in the assay with HT29 colon worked out at 15.9 µM; in the assay with TK-10 renal, 41.8 µM; in the assay on LOX IMVI melanoma, 0.026 µM; in the assay on SK-MEL-5 melanoma, 1.5 µM; in the assay on SK-OV-3 ovarian it was 17.9 µM; with SF-268 CNS it was 3.33 µM. In addition, the TGI came out at 8.12 µM in the assay on MALME-3M melanoma, 4.56 µM in the assay with KM12 colon, 12.8 µM in the assay on 786-0 renal and 13.2 µM with NCI-H460 lung.
Turning to `Oc1ccccc1/C=N\NC(=S)Nc1ccc(F)cc1`, the GI50 was 4.49 µM with HT29 colon; 6.83 µM with TK-10 renal; 0.708 µM with LOX IMVI melanoma; 1.15 µM with SK-MEL-5 melanoma; 2.11 µM in the assay with SK-OV-3 ovarian; 0.95 µM with SF-268 CNS. Further, the GI50 in the assay with MALME-3M melanoma is 1.2 µM; in the assay on KM12 colon it was 0.799 µM; in the assay with 786-0 renal, 3.38 µM; with NCI-H460 lung, 0.446 µM. The TGI was 25 µM with HT29 colon; more than 100 µM with TK-10 renal; more than 79.7 µM in the assay with LOX IMVI melanoma; 7.15 µM with SK-MEL-5 melanoma; 76.5 µM with SK-OV-3 ovarian; more than 73.6 µM with SF-268 CNS. The TGI was 8.35 µM in the assay on MALME-3M melanoma, 45 µM in the assay with KM12 colon, more than 100 µM in the assay on 786-0 renal and 18.1 µM with NCI-H460 lung.
Consider `NS(=O)(=O)c1cccc(Nc2cc(-c3ccc(F)cc3)[nH]n2)c1`, for which the GI50 with HT29 colon was more than 25 µM; in the assay with TK-10 renal it was 20.3 µM; in the assay with LOX IMVI melanoma, 20.7 µM; with SK-MEL-5 melanoma, 24.5 µM; in the assay on SK-OV-3 ovarian, 13.2 µM; in the assay on SF-268 CNS, 18.6 µM. For the same compound, the GI50 in the assay with MALME-3M melanoma was more than 25 µM; with KM12 colon, 8.22 µM; in the assay with 786-0 renal, 23.2 µM; in the assay on NCI-H460 lung, 13.8 µM. The TGI in the assay with HT29 colon, with TK-10 renal, in the assay with LOX IMVI melanoma, in the assay on SK-MEL-5 melanoma, in the assay on SK-OV-3 ovarian and in the assay on SF-268 CNS was more than 25 µM each time. For the same compound, the TGI with MALME-3M melanoma, with KM12 colon, with 786-0 renal and in the assay on NCI-H460 lung was more than 25 µM throughout.
Turning to `N#Cc1ccc2c(-c3ccnc(NC4CC4)n3)c(-c3ccc(F)cc3)nn2c1`, the GI50 in the assay with HT29 colon was more than 25 µM; with TK-10 renal it was more than 25 µM; with LOX IMVI melanoma, more than 25 µM; in the assay on SK-MEL-5 melanoma, more than 25 µM; in the assay with SK-OV-3 ovarian it was 22.4 µM; in the assay on SF-268 CNS it was more than 25 µM. Also, the GI50 in the assay on MALME-3M melanoma, in the assay with KM12 colon, with 786-0 renal and in the assay on NCI-H460 lung was more than 25 µM in each case. Moreover, the TGI in the assay on HT29 colon, in the assay with TK-10 renal, with LOX IMVI melanoma, with SK-MEL-5 melanoma, in the assay with SK-OV-3 ovarian and in the assay with SF-268 CNS was more than 25 µM each time. Moreover, the TGI with MALME-3M melanoma, in the assay with KM12 colon, in the assay on 786-0 renal and with NCI-H460 lung was more than 25 µM throughout.
Consider `O=C(NCCN1CCOCC1)c1cc2c(Oc3ccc(NC(=O)C4(C(=O)Nc5ccc(F)cc5)CC4)cc3)ccnc2[nH]1`, for which the GI50 in the assay with HT29 colon was 3 µM; with TK-10 renal, 7.56 µM; in the assay with LOX IMVI melanoma, 2.05 µM; in the assay on SK-MEL-5 melanoma it was 3.03 µM; in the assay on SK-OV-3 ovarian it was 15.1 µM; in the assay on SF-268 CNS, 6.4 µM. The GI50 was 1.1 µM with MALME-3M melanoma, 0.412 µM in the assay on KM12 colon, 6.74 µM in the assay with 786-0 renal and 4.36 µM with NCI-H460 lung. The TGI in the assay on HT29 colon was 18.7 µM; with TK-10 renal it was 41 µM; in the assay on LOX IMVI melanoma, 39.6 µM; in the assay with SK-MEL-5 melanoma, 12.4 µM; in the assay with SK-OV-3 ovarian it was more than 100 µM; with SF-268 CNS, more than 100 µM. Besides, the TGI was 14.4 µM in the assay on MALME-3M melanoma, more than 40.9 µM with KM12 colon, 45.6 µM with 786-0 renal and more than 100 µM in the assay on NCI-H460 lung.
For the compound `O=C(CC1(O)C(=O)Nc2ccccc21)c1cccc(O)c1` (stereo not given), the TGI in the assay on HT29 colon, with TK-10 renal, in the assay on LOX IMVI melanoma, in the assay with SK-MEL-5 melanoma, in the assay with SK-OV-3 ovarian and with SF-268 CNS was more than 100 µM in each case. Besides, the TGI with MALME-3M melanoma, with 786-0 renal and in the assay on NCI-H460 lung was more than 100 µM throughout.
For the compound `O=[N+]([O-])c1ccc(N=P(c2ccccc2)(c2ccccc2)c2ccccc2)n2nnnc12`, the TGI in the assay with HT29 colon is more than 100 µM; in the assay with TK-10 renal, more than 100 µM; in the assay on LOX IMVI melanoma, more than 100 µM; in the assay with SK-MEL-5 melanoma it was more than 100 µM; with SK-OV-3 ovarian, 95.8 µM; with SF-268 CNS, more than 100 µM. In addition, the TGI in the assay on MALME-3M melanoma, in the assay with KM12 colon, in the assay on 786-0 renal and with NCI-H460 lung was more than 100 µM in each case.
Regarding `Nc1nc(N)c(CCCCc2ccc([N+](=O)[O-])cc2)c(N)n1`, the TGI in the assay with HT29 colon, with TK-10 renal, in the assay with LOX IMVI melanoma, in the assay on SK-MEL-5 melanoma, in the assay on SK-OV-3 ovarian and in the assay with SF-268 CNS was more than 100 µM in each case. The TGI with MALME-3M melanoma, in the assay on KM12 colon, with 786-0 renal and in the assay on NCI-H460 lung was more than 100 µM each time.
On to `COc1cc([C@@H]2c3cc4c(cc3[C@@H](OC3OC5COC(C)OC5C(O)C3O)[C@H]3COC(=O)[C@H]23)OCO4)cc(OC)c1O` (stereo not given in full), for which the TGI with HT29 colon is 79.8 µM and 500 µM and 125 µM; with TK-10 renal it was > 84.4 µM and 48.8 µM and 32 µM; in the assay with LOX IMVI melanoma it was > 81.1 µM and 11.6 µM and 42.9 µM; with SK-MEL-5 melanoma, 47.2 µM and 10.8 µM and 32.5 µM; with SK-OV-3 ovarian it was 62.3 µM and 500 µM and 120 µM; with MALME-3M melanoma, 72 µM [middle of 4 runs]. The TGI is 27.1 µM and 23.9 µM and 92.2 µM in the assay with KM12 colon; 43.3 µM and 28.1 µM and 9.35 µM in the assay with 786-0 renal; 57 µM and 9.96 µM and 25.3 µM in the assay with NCI-H460 lung.
Consider `Cc1ccc2nc(CN(CCN(Cc3nc4ccc(C)cc4[nH]3)Cc3nc4ccc(C)cc4[nH]3)Cc3nc4ccc(C)cc4[nH]3)[nH]c2c1`, for which the GI50 was 1.77 µM with HT29 colon; 1.48 µM in the assay with TK-10 renal; 1.66 µM with LOX IMVI melanoma; 1.69 µM in the assay on SK-MEL-5 melanoma; 1.88 µM with SK-OV-3 ovarian; 1.47 µM in the assay on MALME-3M melanoma. Also, the results for the GI50 in the assay with KM12 colon and in the assay with 786-0 renal were 1.77 µM and 1.75 µM, respectively. In addition, the TGI in the assay with HT29 colon came to 3.2 µM; with TK-10 renal it was 2.95 µM; in the assay with LOX IMVI melanoma, 3.03 µM; in the assay with SK-MEL-5 melanoma, 3.06 µM; with SK-OV-3 ovarian, 3.35 µM; with MALME-3M melanoma, 2.89 µM. The TGI with KM12 colon is 3.18 µM; in the assay on 786-0 renal, 3.15 µM.
Turning to `ClC/C=C/CSc1ncnc2nc[nH]c12`, the GI50 in the assay with HT29 colon, in the assay on LOX IMVI melanoma, in the assay on SK-MEL-5 melanoma, in the assay on SK-OV-3 ovarian, in the assay with SF-268 CNS and in the assay on MALME-3M melanoma was more than 100 µM in each case. Moreover, the GI50 with KM12 colon, in the assay on 786-0 renal and in the assay on NCI-H460 lung was more than 100 µM throughout. Moreover, the TGI with HT29 colon, in the assay with LOX IMVI melanoma, in the assay with SK-MEL-5 melanoma, with SK-OV-3 ovarian, in the assay on SF-268 CNS and in the assay with MALME-3M melanoma was more than 100 µM in each case. Besides, the TGI with KM12 colon, with 786-0 renal and in the assay with NCI-H460 lung was more than 100 µM in each case.
Turning to `COc1cc2c3c(c4ccc(O)cc4c2cc1OC)[C@@H](O)[C@@H]1CCCN1C3`, the TGI in the assay on HT29 colon worked out at 0.034 µM; in the assay on TK-10 renal, 0.00649 µM; with LOX IMVI melanoma, 0.00339 µM; with SK-MEL-5 melanoma, 0.0206 µM; in the assay on SF-268 CNS, 0.0018 µM; with MALME-3M melanoma it was 0.00314 µM. In addition, the TGI with KM12 colon was 0.00837 µM; in the assay with 786-0 renal, 0.0257 µM; in the assay on NCI-H460 lung it was 0.0155 µM.
`CSCSCC(CO)NC(=O)/C=C/c1c(C)[nH]c(=O)[nH]c1=O` (stereo not given): the TGI in the assay on HT29 colon, in the assay with TK-10 renal, with LOX IMVI melanoma, in the assay with SK-MEL-5 melanoma, in the assay with SF-268 CNS and in the assay on MALME-3M melanoma was more than 100 µM in each case. Besides, the TGI in the assay with KM12 colon, in the assay on 786-0 renal and with NCI-H460 lung was more than 100 µM each time.
